{"source": "patent US20260144769A1", "about": "“4-PHENYLBUTYRATE RESTORED GABA UPTAKE AND REDUCED SEIZURES IN SLC6A1 VARIANT-MEDIATED DISORDERS” (Vanderbilt University, priority 2022, published 2026)", "target": "T1, GAT-1 in corrected isogenic control astrocytes (Homo sapiens, UniProt P30531)", "T1 construct": "endogenous in cells; host or cells: astrocytes differentiated from CRISPR-corrected isogenic control iPSCs", "T1 sequence (P30531 whole entry)": "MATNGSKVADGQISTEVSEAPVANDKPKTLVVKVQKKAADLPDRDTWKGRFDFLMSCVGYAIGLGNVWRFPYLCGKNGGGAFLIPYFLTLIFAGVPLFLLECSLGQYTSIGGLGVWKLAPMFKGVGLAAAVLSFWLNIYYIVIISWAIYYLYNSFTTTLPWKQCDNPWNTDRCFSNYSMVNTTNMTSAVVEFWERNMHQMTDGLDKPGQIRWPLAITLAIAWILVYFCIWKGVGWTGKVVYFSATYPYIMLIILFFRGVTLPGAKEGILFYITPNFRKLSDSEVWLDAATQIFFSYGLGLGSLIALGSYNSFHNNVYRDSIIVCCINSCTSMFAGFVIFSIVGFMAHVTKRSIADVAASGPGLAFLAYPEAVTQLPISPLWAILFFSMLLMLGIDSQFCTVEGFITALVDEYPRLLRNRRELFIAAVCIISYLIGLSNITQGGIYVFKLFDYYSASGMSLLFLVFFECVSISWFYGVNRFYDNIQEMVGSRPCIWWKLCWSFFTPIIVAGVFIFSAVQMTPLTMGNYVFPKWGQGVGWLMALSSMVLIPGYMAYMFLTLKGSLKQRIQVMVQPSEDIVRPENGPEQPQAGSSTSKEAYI", "experiment": "3H GABA uptake, corrected isogenic control iPSC derived astrocytes", "format": "cell-based", "conditions": "PBA 2 mM, 24 hrs", "description": "Live images of human neural progenitor cells (NPCs), astrocytes and GABAergic inhibitory neurons differentiated from the human induced pluripotent stem cells (iPSCs) on the day of experiment. […] The DMSO treated corrected or patient cells was taken as 1. […] GABA flux was measured after 30 min transport at room temperature. The influx of GABA, expressed in pmol/μg protein/min, was averaged from duplicates for each condition and for each transfection. The average counting was DMSO treated condition taken as 1. In FIG. 5B, FIG. 5D and FIG. 5F, 966 stands for CI-966 (50 μM) and 711 stands for NNC-711 (35 μM) that was applied 30 min to the astrocytes transfected with the wildtype GAT-1^YFP before preincubation and removed during preincubation. In FIGS. 5B and D, ***p<0.001 vs. corrected DMSO treated. § § <0.01, § § § p<0.001 vs. patient DMSO treated. […] In FIGS. 5B-E, n=4-8 batches of cells. In FIG. 5F, n=4-5 different transfections). Unpaired t test was used for FIG. 5C and FIG. 5E. […] Values were expressed as mean±S.E.M.). […]\nBriefly, cells were cultured in […] dishes for 3 days before the GABA uptake experiment in DMEM with 10% fetal bovine serum and 1% penicillin/streptomycin. […] Glacial acetic acid was added, and lysates were then determined on a liquid scintillator with QuantaSmart. […]", "data": [{"smiles": "O=C(O)CCCc1ccccc1", "note": "[PBA, 4-phenylbutyric acid]", "values": [{"measurement": "GABA uptake normalized to its DMSO treated", "result": "1.173±0.026"}]}]}
